Reference: PMC7607171, “Optimized low‐dose combinatorial drug treatment boosts selectivity and efficacy of colorectal carcinoma treatment” (Molecular Oncology, 2020)
“And” between values parts separate entries of the source, which are not always exact repeats. Identical values can stand only once. Like-named read-outs stand apart in the source and are kept apart here.

Key:
[1] = test system: DLD1 tumors; test: Subcutaneous xenograft tumor growth; format: in vivo, Swiss nu/nu mice
Method: All procedures including animal use were performed in accordance with the Institutional Ethical Committee of Animal Care in Geneva and the Swiss Cantonal Veterinary Office (Authorization number GE‐136‐19). Briefly, female and male Swiss nu/nu mice aged 6–8 weeks were obtained from Charles River (Écully, France). For subcutaneous xenografts mice were inoculated in the left flank with 5x10^6 DLD1 or SW620 cells suspended in 100 µL of cell culture medium, supplemented with 1% FBS.
Drugs were administered through oral gavage based on average body weight of the males (100 µL/mouse) and females (80 µL/mouse) at various concentrations, see Tables S10 and S11.
Solution A: step (1) 30% PEG 400 + 5% propylene glycol + 0.5% Tween 80 and (2) 64.5% sterile H2O. Solution B: step (1) 10% DMSO, (2) 30% PEG 300 + 5% Tween 80 and (3) 55% sterile H2O. […] FOLFOX was administered as 6 mg/kg oxaliplatin two hours before administration of 90 mg/kg leucovorin and 50 mg/kg (DLD1) or 25 mg/kg (SW620) 5‐fluorouracil at day 1 and a repeat of 5‐fluorouracil dosing on day 2.
The Bliss independence model can be used to evaluate the drug interaction potential of a drug mixture. […] The model is based on the probability theory and requires the drug activity of each drug at the selected dose to predict the inhibition rate (IR) at additive doses.

[2] = Serum and intratumor drug concentration at experimental endpoint, DLD1 model; format: in vivo, mice; conditions: for concentration at 1 h / Kp at 1 h: Swiss Nu/nu, mouse, oral; for concentration at 1 h: 1h post-treatment at endpoint (day 15); for Kp at 1 h: tumor vs serum, read-out: ratio tumor vs serum; for Kp at 1 h / ratio ODC vs single drug: DLD1 model
Method: At the experimental endpoint, plasma and tumors were collected 1h post‐treatment and part of the tumor tissue was used to determine the intratumor drug concentrations. Plasma and tumor samples were analyzed using the same LC‐MS/MS method used for drug determination in DBS. Before analysis, tumor tissues were homogenized in a 1 mL mixture of water/acetonitrile (30/70). Hundred uL of homogenates were transferred into new tubes and 50 µL of acetonitrile, as well as 50 µL of a mix of internal standards in MeOH were added. Tubes were vortexed and centrifuged for 10 min at 9,000 rpm. The supernatant (100 µL) was evaporated under nitrogen and reconstituted in 100 µL of acetonitrile with 0.1% formic acid/water with 0.1% formic acid (30/70). 10 µL was then injected into the LC‐MS/MS system. Plasma samples were spotted onto the same paper used for whole blood analysis and were extracted and analyzed using the same methods as used for DBS.

[3] = Clinical plasma pharmacokinetics in patients, plasma concentration limit calculation; format: in vivo; conditions: average plasma concentration calculated from AUC0-24h in patients
Method: To select for clinically relevant doses, the clinically attainable drug concentration measured in the blood plasma of patients after treatment is used to calculate the concentration limit for in vitro experiments. […] The average drug concentration is calculated from the AUC0–24h and is implemented as the plasma concentration limit (PCL) which drug dose selection must remain below for in vitro experiments. If a drug is FDA approved, the AUC0–24h selected is the one corresponding to the recommended dose in clinical practice. If a drug is in clinical trials, the AUC0–24h selected is the one corresponding to the maximum tolerated dose in early stage clinical trials. Note, experiments were conducted with the most current PCL calculated from the AUC0–24h information available at the start of experiments (December 2017), see Table S4.

[4] = 0-24h; ref EPAR WC00033991; cited from earlier work
[5] = Pharmacokinetics, dried blood spot LC-MS/MS, mice with DLD1 tumors; format: in vivo; conditions: for Tmax / AUC(0-t) / Cmax: Swiss Nu/nu, mouse, whole blood (dried blood spot), po, regorafenib 15, erlotinib 12.5, selumetinib 5, vemurafenib 75 mg/kg; for AUC(0-t) / Cmax: whole blood, mean ± SD; for AUC(0-t): oral, read-out: AUC0-24h
Method: The pharmacokinetic (PK) study was performed using the dried blood spot method. Mice were treated with CTRL, ODCs, and corresponding monotherapies as described above. To determine the disposition in blood in the first 24h, blood samples (5 µL/mouse) were collected from the tail vein (n = 4 mice) at 2h, 4h, 8h, and 24h time points and transferred onto paper (a filter paper 903 protein saver card from Whatman (MA, USA)). A disk with the entire spot was punched from the paper card and transferred to the HPLC vial tube. Hundred µL of MeOH containing a mix of internal standards was added, and the tube was vortex‐mixed for about 1 min before injecting 10 µL into the LC‐MS/MS system. The LC‐MS/MS system consisted of an API 4,000 triple quadrupole mass spectrometer (AB sciex, Concord, ON, Canada) controlled by analyst 1.6.1 software. The mass spectrometer was operated in the multiple reaction monitoring (MRM) mode with positive electrospray ionization. The instrument was coupled with an Agilent series 1100 (Waldbronn, Germany) LC system. Chromatography was performed on a Phenomenex Kinetex C18 analytical column (50 mm x 2.1 mm, 2.6 um; Torrance, CA, USA). The flow rate was 0.5 mL/min using gradient elution conditions. The method was fully validated before application to this pharmacokinetic study.

[6] = erlotinib 5 mg/kg, Exp 1, Day 11
[7] = erlotinib 12.5 mg/kg, Exp 1, Day 11
[8] = erlotinib 12.5 mg/kg, Exp 5, Day 16
[9] = erlotinib 12.5 mg/kg, Exp 7, Day 15
[10] = given as part of DLD1-specific ODC

C#Cc1cccc(Nc2ncnc3cc(OCCOC)c(OCCOC)cc23)c1 [erlotinib]
% CTRL (tumor volume) [1, 6]: 104 72 27 % CTRL
Volume [1, 6]: 482 336 127 mm^3
% CTRL (tumor volume) [1, 7]: 87 35 13 % CTRL
Volume [1, 7]: 405 161 61 mm^3
% CTRL (tumor volume) [1, 8]: 66 28 12 % CTRL
Volume [1, 8]: 420 178 80 mm^3
% CTRL (tumor volume) [1, 9]: 98 44 22 % CTRL
Volume [1, 9]: 420 211 86 mm^3
concentration at 1 h ([2]; serum, as part of ODC, regorafenib 15, erlotinib 12.5, selumetinib 5, vemurafenib 75 mg/kg, read-out: concentration serum): 3040 ± 910 ng/mL
concentration at 1 h ([2]; serum, single drug, regorafenib 15, erlotinib 12.5, selumetinib 5, vemurafenib 75 mg/kg, read-out: concentration serum): 2330 ± 180 ng/mL
concentration at 1 h ([2]; tumor (DLD1), as part of ODC, DLD1 tumor, doses as E156, read-out: concentration tumor): 7600 ± 3200 ng/g
concentration at 1 h ([2]; tumor (DLD1), single drug, DLD1 tumor, doses as E156, read-out: concentration tumor): 3620 ± 140 ng/g
Kp at 1 h ([2]; as part of ODC): 2.5
Kp at 1 h ([2]; single drug): 1.55
ratio ODC vs single drug ([2]; serum): 1.31
ratio ODC vs single drug ([2]; tumor): 2.10
PCL (plasma concentration limit) [3]: 1.61 µM and 1.6 µM
AUC [4]: 15.2 mg*h/L EPAR WC00033991
Tmax [5, 10]: 2 h
AUC(0-t) [5, 10]: 22300 ± 5140 ng·h/mL
Cmax [5, 10]: 3370 ± 2160 ng/mL
Tmax ([5]; mono): 2 h
AUC(0-t) ([5]; mono): 19600 ± 7660 ng·h/mL
Cmax ([5]; mono): 2610 ± 860 ng/mL
increase of AUC as part of the ODC vs single-drug treatment ([5]; mice with DLD1 tumors, AUC0-24h): 1.14 x
